Measurements taken from BindingDB's records for doi:10.1021/acs.jmedchem.6b01194 (University of Illinois At Chicago, 2016).

Target: 5-hydroxytryptamine receptor 2B (Homo sapiens, UniProt P41595)
Assay: Agonist activity at human 5-HT2B receptor expressed in human Flp-In-293 cells assessed as induction of calcium flux incubated for 1 hr by Fluo-4 direct dye based FLIPR assay

Sequence of 5-hydroxytryptamine receptor 2B (P41595 whole entry): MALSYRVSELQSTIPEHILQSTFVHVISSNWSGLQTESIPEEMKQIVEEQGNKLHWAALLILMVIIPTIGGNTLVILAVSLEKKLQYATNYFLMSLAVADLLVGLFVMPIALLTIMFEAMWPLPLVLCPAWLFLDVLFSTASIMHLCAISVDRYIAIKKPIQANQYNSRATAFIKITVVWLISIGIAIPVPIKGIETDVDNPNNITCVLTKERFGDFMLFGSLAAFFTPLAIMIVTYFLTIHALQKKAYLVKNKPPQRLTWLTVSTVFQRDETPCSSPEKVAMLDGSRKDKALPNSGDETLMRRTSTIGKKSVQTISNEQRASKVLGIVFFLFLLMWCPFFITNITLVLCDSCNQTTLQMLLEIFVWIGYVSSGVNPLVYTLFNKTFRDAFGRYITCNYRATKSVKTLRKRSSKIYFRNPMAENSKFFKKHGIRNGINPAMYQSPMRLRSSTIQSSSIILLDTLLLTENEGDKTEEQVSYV

EC50: 339 nM
Structure (SMILES): NC[C@H]1C[C@@H]1c1c(OCC2CC2)ccc2occc12
